# Tests used:
# [1] = system: up-regulation of ICAM-1 (CD54) by IFNγ in A549 lung epithelial cells; assay: A549 Epithelial Line Stimulated with IFNγ (ICAM-1 surface expression, FACS); assay type: cell-based, human; settings: Homo sapiens, A549, A549 cells stimulated with IFNγ, ICAM-1 expression by FACS; read-out: IC50, Example 43
# From the text: The activity of the compounds of the invention may additionally be characterized by assaying the effect of the 2,4-substituted pyrimidinediamine compounds described herein on A549 lung epithelial cells and U937 cells. A549 lung epithelial cells and U937 cells up-regulate ICAM-1 (CD54) surface expression in response to a variety of different stimuli. Therefore, using ICAM-1 expression as readout, test compound effects on different signaling pathways can be assessed in the same cell type. Stimulation with IL-1β through the IL-1β receptor activates the TRAF6/NFκB pathway resulting in up-regulation of ICAM-1. IFNγ induces ICAM-1 up-regulation through activation of the JAK1/JAK2 pathway. The up-regulation of ICAM-1 can be quantified by flow cytometry across a compound dose curve and EC50, values are calculated. An exemplary assays of this type are described in greater detail in Examples 43 and 44
# A549 lung epithelial cells up-regulate ICAM-1 (CD54) surface expression in response to a variety of different stimuli. Therefore, using ICAM-1 expression as readout, compound effects on different signaling pathways can be assessed in the same cell type. IFNγ up-regulates ICAM-1 through activation of the JAK/Stat pathway. In this example, the up-regulation of ICAM-1 by IFNγ was assessed.
# The A549 lung epithelial carcinoma cell line originated from the American Type Culture Collection. Routine culturing was with F12K media (Mediatech Inc., Lenexa, KS, Cat. No. 10-025-CV) with 10% fetal bovine serum, 100 I.U. penicillin and […] streptomycin (complete F12k media). Cells were incubated in a humidified atmosphere of 5% CO2 at 37° C. Prior to use in the assay, A549 cells were washed with PBS and trypsinized (Mediatech Inc., Cat. No. 25-052-CI) to lift the cells. The trypsin cell suspension was neutralized with complete F12K media and centrifuged to pellet the cells. The cell pellet was resuspended in complete F12K media at a concentration of 2.0×10^5/mL. Cells were seeded at 20,000 per well, 100 μL total volume, in a flat bottom tissue culture plate and allowed to adhere overnight.
# On day two, A549 cells were pre-incubated with a 2,4-substituted pyrimidinediamine test compound or DMSO (control) (Sigma-Aldrich, St. Louis, MO, Catalog No. D2650) for 1 hour. The cells were then stimulated with IFNγ (75 ng/mL) (Peprotech Inc., Rocky Hill, NJ, Cat. No. 300-02) and allowed to incubate for 24 hours. The final test compound dose range was 30 μM to 14 nM in 200 μL F12K media containing 5% FBS, 0.3% DMSO.
# On day three, the cell media was removed and the cells were washed with 200 μL PBS (phosphate buffered saline). Each well was trypsinized to dissociate the cells, then neutralized by addition of 200 μL complete F12K media. Cells were pelleted and stained with an APC conjugated mouse anti-human ICAM-1 (CD54) (BD Pharmingen, San Diego, CA, Catalog #559771) antibody for 20 minutes at 4° C. Cells were washed with ice cold FACS buffer (PBS+2% FBS) and surface ICAM-1 expression was analyzed by flow cytometry. Detection was performed using a BD LSR I System Flow Cytometer, purchased from BD Biosciences of San Jose, California Events were gated for live scatter and the geometric mean was calculated (Becton-Dickinson CellQuest software version 3.3, Franklin Lakes, NJ). Geometric means were plotted against the compound concentration to generate a dose response curve.
# Primary human T-cells = assay: Primary Human T-Cell Proliferation Assay Stimulated with IL-2 (CellTiter-Glo); assay type: cell-based; settings: Homo sapiens, T-cell, primary human T-cells stimulated with IL-2, proliferation; read-out: IC50, Example 42
# How it was run: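 Peripheral blood T-cells pre-activated with anti-CD3/anti-CD28 and IL-2 were washed free of IL-2, then cultured with compound plus IL-2 for 72 hours at 37° C, duplicate wells. Viability read as ATP by CellTiter-Glo luminescence; IC50 reported.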
IC50 [1],Compound,IC50 (Primary human T-cells)
24.7 µM,"NS(=O)(=O)c1ccc(Nc2ncc(F)c(Nc3ccc(CCCO)cc3)n2)cc1 [VI-85, N2-(4-Aminosulfonylphenyl)-5-fluoro-N4-[4-(3-hydroxypropyl)phenyl]-2,4-pyrimidinediamine]",0.762 µM
4.44 µM,"NS(=O)(=O)c1cccc(Nc2ncc(F)c(Nc3ccc(CCCO)cc3)n2)c1 [VI-86, N2-(3-Aminosulfonylphenyl)-5-fluoro-N4-[4-(3-hydroxypropyl)phenyl]-2,4-pyrimidinediamine]",0.178 µM
54 µM,"N#CCN1C(=O)CSc2ccc(Nc3nc(Nc4cccc(S(N)(=O)=O)c4)ncc3F)cc21 [Compound V-12, N2-(3-Aminosulphonylphenyl)-5-fluoro-N4-(3-oxo-4-cyanomethyl-benzo[1,4]thiazin-6-yl)-2,4-pyrimidinediamine]",0.957 µM
4.88 µM,"C#CCn1ccc2cc(Nc3nc(Nc4ccc(C)c(S(N)(=O)=O)c4)ncc3F)ccc21 [IX-1, N2-(3-Aminosulfonyl-4-methylphenyl)-5-fluoro-N4-[1-(propyn-3-yl)indol-5-yl]-2,4-pyrimidinediamine]",0.581 µM
31 µM,"C=Cc1ccc(Nc2nc(Nc3ccc(C)c(S(N)(=O)=O)c3)ncc2F)cc1 [VI-54, N2-(3-Aminosulfonyl-4-methylphenyl)-5-fluoro-N4-(4-vinylphenyl)-2,4-pyrimidinediamine]",0.967 µM
9.93 µM,"Cc1ccc2cc(Nc3nc(Nc4cccc(S(N)(=O)=O)c4)ncc3F)ccc2n1 [VII-72, N2-(3-Aminosulfonylphenyl)-5-fluoro-N4-(2-methylquinolin-6-yl)-2,4-pyrimidinediamine]",0.415 µM
6.87 µM,"Cc1ccc(Nc2ncc(F)c(Nc3ccc4c(c3)N(CC#N)C(=O)CS4)n2)cc1S(N)(=O)=O [Compound V-13, N2-(3-Aminosulphonyl4-methylphenyl)-5-fluoro-N4-(3-oxo-4-cyanomethyl-benzo[1,4]thiazin-6-yl)-2,4-pyrimidinediamine]",0.468 µM
5.21 µM,"Cc1ccc(Nc2ncc(F)c(Nc3ccc4c(c3)N(CC#N)C(=O)CO4)n2)cc1S(N)(=O)=O [Compound V-8, N2-(3-Aminosulphonyl-4-methylphenyl)-5-fluoro-N4-[3-oxo-4-cyanomethyl-benz[1,4]oxazin-6-yl]-2,4-pyrimidinediamine]",0.225 µM
11.3 µM,"C#CCOc1ccc(Nc2nc(Nc3ccc(C)c(S(N)(=O)=O)c3)ncc2F)cc1 [VI-53, N2-(3-Aminosulfonyl-4-methylphenyl)-5-fluoro-N4-[4-(prop-2-ynyloxy)phenyl]-2,4-pyrimidinediamine]",0.181 µM
10.5 µM,"COc1ccc(Nc2nc(Nc3ccc(C(C)C)c(S(N)(=O)=O)c3)ncc2F)cc1Cl [VI-45, N2-(3-Aminosulfonyl-4-iso-propylphenyl)-N4-(3-chloro-4-methoxy-phenyl)-5-fluoro-2,4-pyrimidinediamine]",1.33 µM
12.4 µM,"COc1c(C)cc(Nc2ncc(F)c(Nc3ccc(C(C)(C)C)cc3)n2)cc1S(N)(=O)=O [VI-37, N2-(3-Aminosulfonyl-4-methoxy-5-methylphenyl)-N4-(4-tert-butylphenyl)-5-fluoro-2,4-pyrimidinediamine]",1.08 µM
14.7 µM,"Cc1ccc(Nc2ncc(F)c(Nc3ccc(O)cc3)n2)cc1S(N)(=O)=O [VI-102, N2-(3-Aminosulfonyl-4-methylphenyl)-5-fluoro-N4-[4-hydroxyphenyl]-2,4-pyrimidinediamine]",0.135 µM
8.92 µM,"Cc1ccc(Nc2ncc(C)c(Nc3ccc4c(c3)NC(=O)CO4)n2)cc1S(N)(=O)=O [VII-30, N2-(3-Aminosulphonyl-4-methylphenyl)-5-methyl-N4-(3-oxo-benz[1,4]oxazin-6-yl)-2,4-pyrimidinediamine]",0.0268 µM
47.1 µM,"COc1cc(Nc2nc(Nc3ccc(Cl)c(S(N)(=O)=O)c3)ncc2F)ccc1Cl [VI-11, N2-(3-Aminosulfonyl-4-chlorophenyl)-N4-(4-chloro-3-methoxyphenyl)-5-fluoro-2,4-pyrimidinediamine]",4.62 µM
3.85 µM,"C#CCOc1ccc(Nc2nc(Nc3ccc(C)c(S(N)(=O)=O)c3)ncc2F)cc1F [VI-60, N2-(3-Aminosulfonyl-4-methylphenyl)-5-fluoro-N4-[3-fluoro-4-(prop-2-ynyloxy)phenyl]-2,4-pyrimidinediamine]",0.187 µM
7.3 µM,"NS(=O)(=O)c1cccc(Nc2ncc(F)c(Nc3ccc(CCCF)cc3)n2)c1 [VI-83, N2-(3-Aminosulfonylphenyl)-5-fluoro-N4-[4-(3-fluoropropyl)phenyl]-2,4-pyrimidinediamine]",0.293 µM
6.48 µM,"NS(=O)(=O)c1cccc(Nc2ncc(F)c(Nc3ccc4ncccc4c3)n2)c1 [VII-70, N2-(3-Aminosulfonylphenyl)-5-fluoro-N4-(quinolin-6-yl)-2,4-pyrimidinediamine]",0.375 µM
26.8 µM,"C#CCOc1ccc(Nc2nc(Nc3ccc(C)c(S(=O)(=O)NC)c3)ncc2F)cc1 [VI-68, 5-Fluoro-N2-(4-methyl-3-methylaminosulfonylphenyl)-N4-[4-(prop-2-ynyloxy)phenyl]-2,4-pyrimidinediamine]",0.742 µM
–,"Cc1ccc(Nc2ncc(F)c(Nc3ccc(C(=O)N4CCSCC4)cc3)n2)cc1S(N)(=O)=O [IX-35, N2-(3-Aminosulfonyl-4-methylphenyl)-5-fluoro-N4-[4-(4-thiomorpholinyl)carbonylphenyl]-2,4-pyrimidinediamine]",0.867 µM
–,"Cc1ccc(Nc2ncc(F)c(Nc3ccc(C)c(S(N)(=O)=O)c3)n2)cc1S(N)(=O)=O [VI-114, N2,N4-Bis-(3-aminosulfonyl-4-methylphenyl)-5-fluoro-2,4-pyrimidinediamine]",2.24 µM
–,"COc1ccc(Nc2nc(Nc3cccc(S(N)(=O)=O)c3)ncc2F)cc1Cl [VI-107, N2-(3-Aminosulfonylphenyl)-5-fluoro-N4-(4-methoxy-3-chlorophenyl]-2,4-pyrimidinediamine]",0.0741 µM
–,"CN1C(=O)CSc2ccc(Nc3nc(Nc4ccc(S(N)(=O)=O)cc4)ncc3F)cc21 [VII-48, N2-(4-Aminosulfonylphenyl)-5-fluoro-N4-(4-methyl-3-oxo-benz[1,4]thiazin-6-yl)-2,4-pyrimidinediamine]",0.337 µM
–,"C#CCOc1ccc(Nc2nc(Nc3ccc(C(C)C)c(S(N)(=O)=O)c3)ncc2F)cc1 [VI-63, N2-[3-Aminosulfonyl-4-(2-propyl)phenyl]-5-fluoro-N4-[4-(prop-2-ynyloxy)phenyl]-2,4-pyrimidinediamine]",0.363 µM
–,"Cc1ccc(Nc2ncc(F)c(Nc3ccc(-c4cnco4)cc3)n2)cc1S(N)(=O)=O [IV-6, N2-(3-Aminosulfonyl-4-methylphenyl)-5-fluoro-N4-[4-(1,3-oxazol-5-yl)phenyl]-2,4-pyrimidinediamine]",0.132 µM
–,"NS(=O)(=O)c1ccc(Nc2ncc(F)c(NCCc3ccc(-n4ccnc4)cc3)n2)cc1 [III-90, N2-(4-Aminosulfonylphenyl)-5-fluoro-N4-[4-(1-imidazolyl)phenethyl]-2,4-pyrimidinediamine]",0.468 µM
–,"N#CCc1c[nH]c2c(Nc3nc(Nc4cccc(S(N)(=O)=O)c4)ncc3F)cccc12 [IX-15, N2-(3-Aminosulfonylphenyl)-N4-(3-cyanomethyl-1H-indol-7-yl)-5-fluoro-2,4-pyrimidinediamine]",0.157 µM

# Reference: patent publication US11827628B2, “Compositions and methods for inhibition of the JAK pathway” (Rigel Pharmaceuticals, Inc., priority 2005, dated 2023)
